Paper PMC9268591, “Anti-Inflammatory, Analgesic and Antioxidant Potential of New (2S,3S)-2-(4-isopropylbenzyl)-2-methyl-4-nitro-3-phenylbutanals and Their Corresponding Carboxylic Acids through In Vitro, In Silico and In Vivo Studies” (Molecules, 2022)

How the values were obtained:
[1] = DPPH free radical scavenging assay
Experimental: The protocol of Brand-Williams et al. was used for the DPPH assay with some modifications. DPPH (4 mg) was dissolved in methanol (100 mL) to obtain a mixture of […] 1,1-diphenyl,2-picrylhydrazyl (DPPH). The stock solution of the various synthesized compounds was prepared in methanol with 1 mg/mL concentration. This stock solution was used to prepare different concentrations of test samples ranging within 1000–62.5 μg/mL. The 0.1 mL of each concentration (1000–62.5 μg/mL) was combined with the DPPH (3 mL) solution in methanol. The solution was kept at 23 °C for 15 min incubation, followed by the absorbance measurement deliberated at 517 nm. Gallic acid was used as a standard drug in this assay. The percentage DPPH radical scavenging potential was measured via the formula [44]: % radical scavenging potential=CAbs.−SAbs./CAbs.×100 where CAbs. is the absorbance of the control, and SAbs is the absorbance of test samples/standard.

[2] = ABTS free radical scavenging assay
Experimental: The total antioxidant activity of test compound (HBH) was estimated using the 2, 2-azinobis [3-ethylbenzthiazoline]-6-sulfonic acid (ABTS). The 100 mL of ABTS solution (7 mM) was added to 100 mL of potassium persulfate ([…], 2.45 mM) solution, mixed, and kept in the dark for 12 h to generate free radicals. […]. Gallic acid at 2 mg/2 mL of water was used as a standard drug. Likewise, for the test sample, different concentrations (1000–62.5 μg/mL) of the […] were made for absorbance measurements at the same wavelength. The 300 μL of each test solution was added to 3 mL of ABTS solution to measure the absorbance at 745 nm through a UV-visible spectrophotometer. A similar volume of each standard solution was taken to determine the absorbance at the same wavelength. The ABTS percent scavenging potential was calculated via the above formula [45].

## CC(C)c1ccc(C[C@](C)(C(=O)O)[C@@H](C[N+](=O)[O-])c2ccc(Cl)cc2)cc1 [FM8]
other
  melting point: 259 to 261 °C

## Cc1ccc([C@H](C[N+](=O)[O-])[C@](C)(Cc2ccc(C(C)C)cc2)C(=O)O)cc1 [FM9]
other
  melting point: 233 to 235 °C

## COc1ccccc1[C@H](C[N+](=O)[O-])[C@](C)(Cc1ccc(C(C)C)cc1)C(=O)O [FM11]
other
  melting point: 211 to 213 °C

## O=C(O)c1cc(O)c(O)c(O)c1 [Gallic acid, reference compound]
[1]
  IC50: 9.02 µM
[2]
  IC50: 3.23 µM
